Source: article PMC4579270, “Identification and Characterization of an Irreversible Inhibitor of CDK2” (Chemistry & Biology, 2015)

Experiments:
Assay in all cases: Dundee protein kinase screen
Assay type in all cases: biochemical
BRSK1 = BRSK1 (Homo sapiens, UniProt Q8TDC3); conditions: BRSK1, 1µM; read-out: %Remaining activity at 1µM NU6300
Procedure, shortened: (§1)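 Selectivity panel of 131 protein kinases, inhibitor tested at a single concentration of 1 µM; values are % kinase activity remaining, mean of duplicates. Re-test of selected kinases used 0.5 µM in the standard format and again after a 4 hour pre-incubation with the inhibitor.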

PAK2 = PAK2 (Homo sapiens, UniProt Q13177); conditions: PAK2, 1µM; read-out: %Remaining activity at 1µM NU6300
PAK2, sequence (Q13177 whole entry): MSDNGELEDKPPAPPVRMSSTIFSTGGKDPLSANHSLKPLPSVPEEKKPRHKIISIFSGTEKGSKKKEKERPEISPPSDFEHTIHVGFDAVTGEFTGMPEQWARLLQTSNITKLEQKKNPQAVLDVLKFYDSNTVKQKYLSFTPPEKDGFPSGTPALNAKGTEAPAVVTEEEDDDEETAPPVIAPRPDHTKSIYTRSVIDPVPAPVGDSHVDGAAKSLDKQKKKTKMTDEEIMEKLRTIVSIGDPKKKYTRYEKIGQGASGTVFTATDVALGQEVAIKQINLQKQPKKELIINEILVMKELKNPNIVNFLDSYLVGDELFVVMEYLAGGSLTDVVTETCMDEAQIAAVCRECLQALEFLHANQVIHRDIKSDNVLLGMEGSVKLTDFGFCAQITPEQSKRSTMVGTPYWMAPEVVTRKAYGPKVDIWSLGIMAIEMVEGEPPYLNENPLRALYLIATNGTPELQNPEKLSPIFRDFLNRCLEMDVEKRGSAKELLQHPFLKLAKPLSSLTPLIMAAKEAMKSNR
Procedure, shortened: as §1

TSSK1 = target: T1, TSSK1 (Homo sapiens, UniProt Q9BXA7); conditions: TSSK1, 1µM; read-out: %Remaining activity at 1µM NU6300
T1 sequence (Q9BXA7 1-367): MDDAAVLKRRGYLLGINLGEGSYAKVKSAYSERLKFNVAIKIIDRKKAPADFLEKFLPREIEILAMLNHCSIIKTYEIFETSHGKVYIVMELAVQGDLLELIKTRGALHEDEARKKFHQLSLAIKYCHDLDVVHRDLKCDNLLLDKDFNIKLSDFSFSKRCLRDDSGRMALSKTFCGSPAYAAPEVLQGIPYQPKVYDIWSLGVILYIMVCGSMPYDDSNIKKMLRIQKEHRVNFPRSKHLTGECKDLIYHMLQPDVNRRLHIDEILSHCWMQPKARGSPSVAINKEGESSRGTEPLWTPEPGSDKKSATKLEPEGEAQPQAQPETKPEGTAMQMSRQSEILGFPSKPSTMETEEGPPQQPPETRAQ
Procedure, shortened: as §1

MARK3 = MARK3 (Homo sapiens, UniProt P27448); conditions: MARK3, 1µM; read-out: %Remaining activity at 1µM NU6300
MARK3, sequence (P27448 whole entry): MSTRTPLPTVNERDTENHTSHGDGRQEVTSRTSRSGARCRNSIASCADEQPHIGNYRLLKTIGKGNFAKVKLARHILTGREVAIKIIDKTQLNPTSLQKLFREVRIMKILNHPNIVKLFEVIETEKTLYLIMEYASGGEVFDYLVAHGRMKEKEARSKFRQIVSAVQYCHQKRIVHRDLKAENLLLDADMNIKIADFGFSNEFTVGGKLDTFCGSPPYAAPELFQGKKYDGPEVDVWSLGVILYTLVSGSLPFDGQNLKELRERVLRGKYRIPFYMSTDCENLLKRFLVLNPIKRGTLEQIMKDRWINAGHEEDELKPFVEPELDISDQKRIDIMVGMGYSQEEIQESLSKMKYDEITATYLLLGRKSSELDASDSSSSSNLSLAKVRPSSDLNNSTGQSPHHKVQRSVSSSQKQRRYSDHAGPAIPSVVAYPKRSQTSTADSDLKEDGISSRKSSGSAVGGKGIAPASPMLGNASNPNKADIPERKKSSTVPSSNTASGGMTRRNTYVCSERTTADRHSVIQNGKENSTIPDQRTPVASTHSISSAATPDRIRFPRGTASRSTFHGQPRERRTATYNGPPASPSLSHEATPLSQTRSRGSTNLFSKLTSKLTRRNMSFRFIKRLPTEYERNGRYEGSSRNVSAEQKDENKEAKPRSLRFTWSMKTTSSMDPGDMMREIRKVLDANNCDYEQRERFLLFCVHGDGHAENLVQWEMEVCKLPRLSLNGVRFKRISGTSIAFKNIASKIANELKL
Procedure, shortened: as §1

ZAP70 = ZAP70 (Homo sapiens, UniProt P43403); conditions: ZAP70, 1µM; read-out: %Remaining activity at 1µM NU6300
ZAP70, sequence (P43403 whole entry): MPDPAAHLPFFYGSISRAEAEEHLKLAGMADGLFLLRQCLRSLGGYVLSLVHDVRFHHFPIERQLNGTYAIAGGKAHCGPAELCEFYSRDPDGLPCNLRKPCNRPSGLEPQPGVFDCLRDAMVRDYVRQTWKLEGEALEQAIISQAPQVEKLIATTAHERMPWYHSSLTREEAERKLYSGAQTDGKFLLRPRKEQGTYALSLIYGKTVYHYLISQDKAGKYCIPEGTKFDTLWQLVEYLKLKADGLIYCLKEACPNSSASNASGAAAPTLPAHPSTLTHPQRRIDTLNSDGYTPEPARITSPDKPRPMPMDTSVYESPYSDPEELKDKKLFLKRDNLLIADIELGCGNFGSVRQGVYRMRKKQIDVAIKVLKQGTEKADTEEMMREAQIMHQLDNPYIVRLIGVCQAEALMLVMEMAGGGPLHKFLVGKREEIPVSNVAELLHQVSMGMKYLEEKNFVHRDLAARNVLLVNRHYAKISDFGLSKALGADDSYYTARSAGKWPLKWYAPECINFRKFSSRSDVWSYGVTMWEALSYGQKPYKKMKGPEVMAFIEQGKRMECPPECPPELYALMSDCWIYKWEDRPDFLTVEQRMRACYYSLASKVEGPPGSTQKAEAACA
Procedure, shortened: as §1

JAK2 = JAK2 (Homo sapiens, UniProt O60674); conditions: JAK2, 1µM; read-out: %Remaining activity at 1µM NU6300
Procedure, shortened: as §1

GSK3β = GSK3β (Homo sapiens, UniProt P49841); conditions: read-out: %Remaining activity at 1µM NU6300
GSK3β, sequence (P49841 whole entry): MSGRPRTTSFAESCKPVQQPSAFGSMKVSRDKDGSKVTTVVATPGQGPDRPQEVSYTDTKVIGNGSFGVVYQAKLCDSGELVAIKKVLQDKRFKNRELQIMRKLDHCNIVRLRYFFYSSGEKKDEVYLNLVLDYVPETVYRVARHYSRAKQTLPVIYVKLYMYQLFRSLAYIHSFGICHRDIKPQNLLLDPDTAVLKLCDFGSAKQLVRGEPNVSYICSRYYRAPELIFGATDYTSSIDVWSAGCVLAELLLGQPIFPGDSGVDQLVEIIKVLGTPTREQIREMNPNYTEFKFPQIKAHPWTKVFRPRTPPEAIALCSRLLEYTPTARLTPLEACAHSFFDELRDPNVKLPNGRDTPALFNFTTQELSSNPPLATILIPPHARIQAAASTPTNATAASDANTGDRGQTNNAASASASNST
Procedure, shortened: as §1

MEKK1 = MEKK1 (Homo sapiens, UniProt Q13233); conditions: MEKK1, 1µM; read-out: %Remaining activity at 1µM NU6300
Procedure, shortened: as §1

MINK1 = MINK1 (Homo sapiens, UniProt Q8N4C8); conditions: MINK1, 1µM; read-out: %Remaining activity at 1µM NU6300
MINK1, sequence (Q8N4C8 whole entry): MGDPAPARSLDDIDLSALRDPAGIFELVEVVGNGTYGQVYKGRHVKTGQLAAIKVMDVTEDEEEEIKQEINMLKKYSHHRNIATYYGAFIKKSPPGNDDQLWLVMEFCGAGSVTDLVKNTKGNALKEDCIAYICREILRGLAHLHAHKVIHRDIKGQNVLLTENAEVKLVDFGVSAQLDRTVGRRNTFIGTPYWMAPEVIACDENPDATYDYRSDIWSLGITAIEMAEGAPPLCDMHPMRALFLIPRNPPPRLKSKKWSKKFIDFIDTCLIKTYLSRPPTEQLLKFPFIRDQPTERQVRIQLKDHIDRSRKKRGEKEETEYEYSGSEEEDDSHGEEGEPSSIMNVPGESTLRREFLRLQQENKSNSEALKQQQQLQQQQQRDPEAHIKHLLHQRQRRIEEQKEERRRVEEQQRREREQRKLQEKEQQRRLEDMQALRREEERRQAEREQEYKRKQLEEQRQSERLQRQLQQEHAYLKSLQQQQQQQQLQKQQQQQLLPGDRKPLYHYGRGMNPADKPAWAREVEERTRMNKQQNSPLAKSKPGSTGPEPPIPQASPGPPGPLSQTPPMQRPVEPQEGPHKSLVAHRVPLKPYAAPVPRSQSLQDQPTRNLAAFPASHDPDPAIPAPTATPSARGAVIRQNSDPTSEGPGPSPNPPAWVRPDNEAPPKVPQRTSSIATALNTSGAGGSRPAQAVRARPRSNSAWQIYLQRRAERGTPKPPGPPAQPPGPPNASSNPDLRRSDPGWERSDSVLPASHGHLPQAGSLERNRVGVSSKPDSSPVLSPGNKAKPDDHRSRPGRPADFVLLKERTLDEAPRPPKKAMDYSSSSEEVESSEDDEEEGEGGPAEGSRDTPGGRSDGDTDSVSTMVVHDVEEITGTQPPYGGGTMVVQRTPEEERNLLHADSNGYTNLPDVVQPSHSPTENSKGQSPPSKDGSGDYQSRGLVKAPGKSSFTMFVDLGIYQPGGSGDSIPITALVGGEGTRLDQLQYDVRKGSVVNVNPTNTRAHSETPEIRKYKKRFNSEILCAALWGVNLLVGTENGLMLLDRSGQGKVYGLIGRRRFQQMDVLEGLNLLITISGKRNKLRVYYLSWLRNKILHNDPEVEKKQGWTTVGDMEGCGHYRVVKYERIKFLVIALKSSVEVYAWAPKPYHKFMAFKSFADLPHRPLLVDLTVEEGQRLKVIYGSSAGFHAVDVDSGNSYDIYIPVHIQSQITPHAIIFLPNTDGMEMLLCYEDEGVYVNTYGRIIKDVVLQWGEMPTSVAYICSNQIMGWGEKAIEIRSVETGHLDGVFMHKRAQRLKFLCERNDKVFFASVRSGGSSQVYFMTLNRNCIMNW
Procedure, shortened: as §1

CDK9-Cyclin T1 = CDK9-Cyclin T1 (Homo sapiens, UniProt P50750); conditions: CDK9-Cyclin T1, 1µM; read-out: %Remaining activity at 1µM NU6300
Procedure, shortened: as §1

PKA = PKA (Homo sapiens, UniProt P17612); conditions: read-out: %Remaining activity at 1µM NU6300
Procedure, shortened: as §1

p38α MAPK = p38α MAPK (Homo sapiens, UniProt Q16539); conditions: read-out: %Remaining activity at 1µM NU6300
p38α MAPK, sequence (Q16539 whole entry): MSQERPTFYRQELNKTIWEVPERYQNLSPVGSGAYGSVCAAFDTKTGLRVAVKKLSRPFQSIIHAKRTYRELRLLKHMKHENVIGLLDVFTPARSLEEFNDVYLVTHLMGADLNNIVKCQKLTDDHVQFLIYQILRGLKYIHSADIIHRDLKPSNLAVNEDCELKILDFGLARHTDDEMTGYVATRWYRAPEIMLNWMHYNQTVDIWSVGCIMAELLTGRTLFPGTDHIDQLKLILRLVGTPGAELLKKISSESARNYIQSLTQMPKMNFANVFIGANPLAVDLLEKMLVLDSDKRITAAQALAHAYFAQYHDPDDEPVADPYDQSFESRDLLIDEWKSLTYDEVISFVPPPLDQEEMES
Procedure, shortened: as §1

BRSK1, sequence (Q8TDC3 whole entry): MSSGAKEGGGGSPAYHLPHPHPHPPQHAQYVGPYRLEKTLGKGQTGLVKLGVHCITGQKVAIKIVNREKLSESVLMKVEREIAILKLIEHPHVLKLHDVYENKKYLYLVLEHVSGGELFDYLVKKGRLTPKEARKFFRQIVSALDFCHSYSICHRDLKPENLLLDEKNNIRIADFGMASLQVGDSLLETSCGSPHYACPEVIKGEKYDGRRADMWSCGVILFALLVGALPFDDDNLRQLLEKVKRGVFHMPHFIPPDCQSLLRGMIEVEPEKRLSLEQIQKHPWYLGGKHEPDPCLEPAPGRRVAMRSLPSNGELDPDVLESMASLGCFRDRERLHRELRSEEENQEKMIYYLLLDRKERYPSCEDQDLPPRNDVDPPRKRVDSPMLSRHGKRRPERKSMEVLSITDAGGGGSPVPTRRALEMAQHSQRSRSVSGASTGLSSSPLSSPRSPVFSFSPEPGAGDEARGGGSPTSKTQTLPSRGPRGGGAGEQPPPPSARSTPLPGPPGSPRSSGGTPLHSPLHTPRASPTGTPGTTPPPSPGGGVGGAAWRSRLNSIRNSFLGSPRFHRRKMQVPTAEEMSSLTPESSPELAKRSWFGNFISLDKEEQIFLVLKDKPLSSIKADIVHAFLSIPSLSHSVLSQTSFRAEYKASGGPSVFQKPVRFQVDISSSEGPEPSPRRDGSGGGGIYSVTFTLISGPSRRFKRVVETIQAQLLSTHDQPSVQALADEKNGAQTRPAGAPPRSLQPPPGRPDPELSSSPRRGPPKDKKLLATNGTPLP

`C=CS(=O)(=O)c1ccc(Nc2nc(OCC3CCCCC3)c3nc[nH]c3n2)cc1` [NU6300, 6-(cyclohexylmethoxy)-N-(4-(vinylsulfonyl)phenyl)-9H-purin-2-amine] was tested, and the remaining activity at 1 µM (BRSK1) was 79%, the remaining activity at 1 µM (PAK2) was 92% and the remaining activity at 1 µM (TSSK1) was 26%. The remaining activity at 1 µM (MARK3) was 71%, the remaining activity at 1 µM (ZAP70) was 90% and the remaining activity at 1 µM (JAK2) was 5%. It also gave a remaining activity at 1 µM (GSK3β) of 42%, a remaining activity at 1 µM (MEKK1) of 89% and a remaining activity at 1 µM (MINK1) of 69%. For the same compound, the remaining activity at 1 µM (CDK9-Cyclin T1) was 87%, the remaining activity at 1 µM (PKA) was 88% and the remaining activity at 1 µM (p38α MAPK) was 81%.
